{"source": "patent US20220040129A1", "about": "“TREATMENT OF HYPERAMMONEMIA IN PATIENTS WITH RENAL INSUFFICIENCY” (RECORDATI S.p.A., priority 2019, published 2022)", "experiment": "CARIV-A-001 Part A: single ascending IV doses over 20 minutes in healthy subjects", "assay_type": "in vivo, human", "conditions": "both sexes, human, plasma, iv", "procedure": "This study was conducted in healthy male or female volunteers, at a single site to assess the safety and PK profile of an IV formulation of Carbaglu and to determine the absolute bioavailability of the current marketed oral formulation of Carbaglu.\nThe levels of CGA in plasma and urine were analysed using a fully validated method, which included LC-MS/MS analysis. The PK data were analysed based on a non-compartmental model. A model-based approach was implemented for the characterization of the PK properties of the IV formulation in order to estimate the level of PK exposure after different doses administered with different duration of infusion. […] The PK parameters were determined using SAS (version 9.3), and modelling of the PK data was performed using NONMEM (version 7.3, ICON Solutions). PART A: Mono-Centre, Randomized, Successive Groups, Double-Blind, Placebo-Controlled Study in Healthy Male and Female Subjects\nEach cohort included a minimum of 3 and maximum of 5 subjects of each of the two genders.\nThree loading doses of CGA over 20 minutes were tested by IV administration, 3.5 mg/kg, 5.0 mg/kg and 7.5 mg/kg. For each of these three doses, 6 subjects were administered CGA and 2 received the placebo.\nPlasma concentrations of CGA were measured at 18 timepoints, including a sample preceding the start of the administration, and then between 10 minutes and 48 hours following the initiation of the IV infusion.\nThe PK analysis of Carbaglu was conducted by using standard non-compartmental approach.", "note": "Read-outs that look alike come from different tables or passages of the source."}
{"smiles": "NC(=O)N[C@@H](CCC(=O)O)C(=O)O", "note": "[carglumic acid, N-carbamoyl-L-glutamic acid]", "values": [{"measurement": "half-life", "setting": "3.5 mg/kg, IV over 20 minutes, 3.5 mg/kg, read-out: T1/2, Median", "result": 21.1, "unit": "h"}, {"measurement": "half-life", "setting": "3.5 mg/kg, IV over 20 minutes, 3.5 mg/kg, read-out: T1/2, Range", "result": "6.6 to 36.1", "unit": "h"}, {"measurement": "Vd", "setting": "3.5 mg/kg, IV over 20 minutes, 3.5 mg/kg, read-out: Volume of Distribution (Vd), Mean", "result": 9.28, "unit": "L/kg"}, {"measurement": "Vd", "setting": "3.5 mg/kg, IV over 20 minutes, 3.5 mg/kg, read-out: Volume of Distribution (Vd), Median", "result": 8.75, "unit": "L/kg"}, {"measurement": "Vd", "setting": "3.5 mg/kg, IV over 20 minutes, 3.5 mg/kg, read-out: Volume of Distribution (Vd), Range", "result": "3.26 to 15.5", "unit": "L/kg"}, {"measurement": "AUC(0-t)", "setting": "5 mg/kg, IV over 20 minutes, 5.0 mg/kg, read-out: AUC24h, Mean", "result": 14800, "unit": "ng·h/mL"}, {"measurement": "AUC(0-t)", "setting": "5 mg/kg, IV over 20 minutes, 5.0 mg/kg, read-out: AUC24h, Median", "result": 14900, "unit": "ng·h/mL"}, {"measurement": "AUC(0-t)", "setting": "5 mg/kg, IV over 20 minutes, 5.0 mg/kg, read-out: AUC24h, Range", "result": "11100 to 19300", "unit": "ng·h/mL"}, {"measurement": "AUC(0-inf)", "setting": "5 mg/kg, IV over 20 minutes, 5.0 mg/kg, read-out: AUCinf, Mean", "result": 16100, "unit": "ng·h/mL"}, {"measurement": "AUC(0-inf)", "setting": "5 mg/kg, IV over 20 minutes, 5.0 mg/kg, read-out: AUCinf, Median", "result": 16600, "unit": "ng·h/mL"}, {"measurement": "AUC(0-inf)", "setting": "5 mg/kg, IV over 20 minutes, 5.0 mg/kg, read-out: AUCinf, Range", "result": "12300 to 20000", "unit": "ng·h/mL"}, {"measurement": "AUC(0-t)", "setting": "5 mg/kg, IV over 20 minutes, 5.0 mg/kg, read-out: AUClast-timepoint, Mean", "result": 15300, "unit": "ng·h/mL"}, {"measurement": "AUC(0-t)", "setting": "5 mg/kg, IV over 20 minutes, 5.0 mg/kg, read-out: AUClast-timepoint, Median", "result": 15600, "unit": "ng·h/mL"}, {"measurement": "AUC(0-t)", "setting": "5 mg/kg, IV over 20 minutes, 5.0 mg/kg, read-out: AUClast-timepoint, Range", "result": "11500 to 19300", "unit": "ng·h/mL"}, {"measurement": "clearance", "setting": "5 mg/kg, IV over 20 minutes, 5.0 mg/kg, read-out: Clearance (Cl), Mean", "result": 5.33, "unit": "mL/min/kg"}, {"measurement": "clearance", "setting": "5 mg/kg, IV over 20 minutes, 5.0 mg/kg, read-out: Clearance (Cl), Median", "result": 5, "unit": "mL/min/kg"}, {"measurement": "clearance", "setting": "5 mg/kg, IV over 20 minutes, 5.0 mg/kg, read-out: Clearance (Cl), Range", "result": "4.17 to 6.83", "unit": "mL/min/kg"}, {"measurement": "Cmax", "setting": "5 mg/kg, IV over 20 minutes, 5.0 mg/kg, read-out: Cmax, Mean", "result": 15000, "unit": "ng/mL"}, {"measurement": "Cmax", "setting": "5 mg/kg, IV over 20 minutes, 5.0 mg/kg, read-out: Cmax, Median", "result": 15600, "unit": "ng/mL"}, {"measurement": "Cmax", "setting": "5 mg/kg, IV over 20 minutes, 5.0 mg/kg, read-out: Cmax, Range", "result": "8420 to 19100", "unit": "ng/mL"}, {"measurement": "half-life", "setting": "5 mg/kg, IV over 20 minutes, 5.0 mg/kg, read-out: T1/2, Mean", "result": 21.6, "unit": "h"}, {"measurement": "half-life", "setting": "5 mg/kg, IV over 20 minutes, 5.0 mg/kg, read-out: T1/2, Median", "result": 21.4, "unit": "h"}, {"measurement": "half-life", "setting": "5 mg/kg, IV over 20 minutes, 5.0 mg/kg, read-out: T1/2, Range", "result": "12.8 to 29.3", "unit": "h"}, {"measurement": "Vd", "setting": "5 mg/kg, IV over 20 minutes, 5.0 mg/kg, read-out: Volume of Distribution (Vd), Mean", "result": 9.94, "unit": "L/kg"}, {"measurement": "Vd", "setting": "5 mg/kg, IV over 20 minutes, 5.0 mg/kg, read-out: Volume of Distribution (Vd), Median", "result": 10.2, "unit": "L/kg"}, {"measurement": "Vd", "setting": "5 mg/kg, IV over 20 minutes, 5.0 mg/kg, read-out: Volume of Distribution (Vd), Range", "result": "4.62 to 12.8", "unit": "L/kg"}, {"measurement": "AUC(0-t)", "setting": "7.5 mg/kg, IV over 20 minutes, 7.5 mg/kg, read-out: AUC24h, Mean", "result": 21600, "unit": "ng·h/mL"}, {"measurement": "AUC(0-t)", "setting": "7.5 mg/kg, IV over 20 minutes, 7.5 mg/kg, read-out: AUC24h, Median", "result": 20700, "unit": "ng·h/mL"}, {"measurement": "AUC(0-t)", "setting": "7.5 mg/kg, IV over 20 minutes, 7.5 mg/kg, read-out: AUC24h, Range", "result": "19200 to 26900", "unit": "ng·h/mL"}, {"measurement": "AUC(0-inf)", "setting": "7.5 mg/kg, IV over 20 minutes, 7.5 mg/kg, read-out: AUCinf, Mean", "result": 23900, "unit": "ng·h/mL"}, {"measurement": "AUC(0-inf)", "setting": "7.5 mg/kg, IV over 20 minutes, 7.5 mg/kg, read-out: AUCinf, Median", "result": 23200, "unit": "ng·h/mL"}, {"measurement": "AUC(0-inf)", "setting": "7.5 mg/kg, IV over 20 minutes, 7.5 mg/kg, read-out: AUCinf, Range", "result": "20200 to 29100", "unit": "ng·h/mL"}, {"measurement": "AUC(0-t)", "setting": "7.5 mg/kg, IV over 20 minutes, 7.5 mg/kg, read-out: AUClast-timepoint, Mean", "result": 22600, "unit": "ng·h/mL"}, {"measurement": "AUC(0-t)", "setting": "7.5 mg/kg, IV over 20 minutes, 7.5 mg/kg, read-out: AUClast-timepoint, Median", "result": 22100, "unit": "ng·h/mL"}, {"measurement": "AUC(0-t)", "setting": "7.5 mg/kg, IV over 20 minutes, 7.5 mg/kg, read-out: AUClast-timepoint, Range", "result": "19600 to 27800", "unit": "ng·h/mL"}, {"measurement": "clearance", "setting": "7.5 mg/kg, IV over 20 minutes, 7.5 mg/kg, read-out: Clearance (Cl), Mean", "result": 5.33, "unit": "mL/min/kg"}, {"measurement": "clearance", "setting": "7.5 mg/kg, IV over 20 minutes, 7.5 mg/kg, read-out: Clearance (Cl), Median", "result": 5.33, "unit": "mL/min/kg"}, {"measurement": "clearance", "setting": "7.5 mg/kg, IV over 20 minutes, 7.5 mg/kg, read-out: Clearance (Cl), Range", "result": "4.33 to 6.17", "unit": "mL/min/kg"}, {"measurement": "Cmax", "setting": "7.5 mg/kg, IV over 20 minutes, 7.5 mg/kg, read-out: Cmax, Mean", "result": 22900, "unit": "ng/mL"}, {"measurement": "Cmax", "setting": "7.5 mg/kg, IV over 20 minutes, 7.5 mg/kg, read-out: Cmax, Median", "result": 23200, "unit": "ng/mL"}, {"measurement": "half-life", "setting": "7.5 mg/kg, IV over 20 minutes, 7.5 mg/kg, read-out: T1/2, Mean", "result": 24.8, "unit": "h"}, {"measurement": "half-life", "setting": "7.5 mg/kg, IV over 20 minutes, 7.5 mg/kg, read-out: T1/2, Median", "result": 25.5, "unit": "h"}, {"measurement": "half-life", "setting": "7.5 mg/kg, IV over 20 minutes, 7.5 mg/kg, read-out: T1/2, Range", "result": "15.3 to 35.4", "unit": "h"}, {"measurement": "Vd", "setting": "7.5 mg/kg, IV over 20 minutes, 7.5 mg/kg, read-out: Volume of Distribution (Vd), Mean", "result": 11.2, "unit": "L/kg"}, {"measurement": "Vd", "setting": "7.5 mg/kg, IV over 20 minutes, 7.5 mg/kg, read-out: Volume of Distribution (Vd), Median", "result": 10.8, "unit": "L/kg"}, {"measurement": "Vd", "setting": "7.5 mg/kg, IV over 20 minutes, 7.5 mg/kg, read-out: Volume of Distribution (Vd), Range", "result": "7.02 to 17.5", "unit": "L/kg"}, {"measurement": "half-life", "setting": "IV over 20 minutes, across dose groups 3.5-7.5 mg/kg, read-out: Half-life, mean value (converted)", "result": 22, "unit": "h"}, {"measurement": "half-life", "setting": "IV over 20 minutes, each cohort, read-out: Half-life, range of cohort means", "result": "20.6 to 24.8", "unit": "h"}, {"measurement": "Vd", "setting": "IV over 20 minutes, each cohort, read-out: Volume of distribution (Vd), range of cohort means", "result": "9.3 to 11.2", "unit": "L/kg"}, {"measurement": "clearance", "setting": "IV over 20 minutes, in each cohort, read-out: Total body clearance, mean value (converted)", "result": 5.33, "unit": "mL/min/kg"}, {"measurement": "Vd", "setting": "IV over 20 minutes, read-out: Vss, range of cohort means", "result": "2.21 to 2.39", "unit": "L/kg"}, {"measurement": "Vd", "setting": "after IV administration, overall analysis on the three groups, read-out: Volume of distribution, median", "result": 10.2, "unit": "L/kg"}, {"measurement": "half-life", "setting": "after IV administration, read-out: Terminal half-life, median (converted)", "result": "~22", "unit": "h"}, {"measurement": "half-life", "setting": "after IV administration, read-out: Terminal half-life, range", "result": "7 to 36", "unit": "h"}, {"measurement": "clearance", "setting": "after IV administration, read-out: Total clearance, median", "result": 354, "unit": "mL/min"}, {"measurement": "clearance", "setting": "after IV administration, read-out: Total clearance, range", "result": "241 to 502", "unit": "mL/min"}]}
